# Assay results from patent publication US4075332A (priority 1976, dated 1978).
# Like-named read-outs stand apart in the source and are kept apart here.
# Assays:
# bovine cholinesterase = bovine cholinesterase (Bos taurus, UniProt P23795); test: biochemical; type: biochemical
# Root-knot nematode = conditions: in vivo
# in vivo = conditions: rat, po
# Corn rootworm larvae = test: whole plant or invertebrate; conditions: soil, 120 h, read-out: Corn Rootworm Larvae Mortality, % (at 2.5 ppm)
# House fly = test: whole plant or invertebrate; conditions: Musca domestica, 48 h; for mortality at 20 ppm: read-out: House Fly Spray Mortality, % (at 20 ppm); for mortality at 250 ppm: read-out: Mortality, % - House Flies
# Southern army worm [1] = conditions: southern armyworm, in vivo
# Mexican bean beetle = test: whole plant or invertebrate; conditions: Epilachna varivestis; for mortality at 50 ppm / mortality at 100 ppm: read-out: Mexican Bean Beetle Larvae Mortality, %
# Southern army worm [2] = test: whole plant or invertebrate; conditions: Spodoptera eridania; for mortality at 250 ppm: read-out: Mortality, % - Southern ArmyWorm; for mortality at 50 ppm / mortality at 100 ppm: read-out: Mortality of Southern Armyworm, %
# Bean aphids [3] = test: whole plant or invertebrate; conditions: Aphis fabae, 48 h, read-out: Mortality, % - Bean Aphids Contact
# Lone Star Ticks = test: Animal systemic insecticide test in guinea pigs, lone star tick nymphs; type: in vivo, lone star tick (host: guinea pig); conditions: Cavia porcellus, 24 h, Table XI, read-out: Lowest Dosage (mg/kg) Causing Complete Kill of Nymphs of Lone Star Ticks
# Procedure: (§1) The experimental compounds, formulated as 5% solutions in Tween 20, were administered orally and subcutaneously to guonea pigs which have been artificially infested with nymphs of the lone star tick at 48 hours before treatment, larvae of the secondary screw worm and of the black blow fly at 24 hours before treatment. Mortality was observed 24 hours after the treatment. For the details of the techniques, reference is made to the publications of R. O. Drummond in the Journal of Economic Entomology, particularly in Vol. 60, pages 733-737 in 1967.
# Bean aphids [4] = test: Aphid, Systemic; type: in vivo, bean aphid; conditions: Aphis fabae, 48 h, read-out: Mortality, % - Bean Aphids Systemic
# Procedure: (§2) In the insecticidal and miticidal tests, the experimental compounds were tested as aqueous emulsions. These emulsions were prepared by dissolving the compound in acetone and dispersing it in distilled water with Triton X-100, an alkylaryl polyether alcohol derived by the reaction of i-octylphenol with ethylene oxide, to give spray emulsions containing the desired concentrations of the compound. These emulsions were then used in standard laboratory tests described below.
# Aphid, Systemic: Nasturtium plants infested with the bean aphid were treated by applying 20 ml. of the formulated test chemical to the soil. The degree of aphid control was rated after 2 days.
# Secondary Screw Worms = test: Animal systemic insecticide test in guinea pigs, secondary screw worm larvae; type: in vivo, secondary screw worm (host: guinea pig); conditions: Cavia porcellus, 24 h, Table XI, read-out: Lowest Dosage (mg/kg) Causing Complete Kill of Larvae of Secondary Screw Worms
# Procedure: as §1
# Black Blow Flies = test: Animal systemic insecticide test in guinea pigs, black blow fly larvae; type: in vivo, black blow fly (host: guinea pig); conditions: Calliphoridae, in Cavia porcellus, 24 h, Table XI, read-out: Lowest Dosage (mg/kg) Causing Complete Kill of Larvae of Black Blow Flies
# Procedure: as §1
# Spider mites [5] = test: whole plant or invertebrate; conditions: Tetranychus urticae, 48 h, read-out: Mortality, % - Spider Mites Contact
# Spider mites [6] = test: Mite, Systemic; type: in vivo, two-spotted mite; conditions: Tetranychus urticae, read-out: Mortality, % - Spider Mites Systemic
# Procedure: as §2
# Mite, Systemic: Bean plants infested with the two-spotted mites were treated by applying 20 ml. of the formulated test chemical to the soil.
# [7] = Thermal stability of products (GC / nmr observation); type: physicochemical; conditions: for thermal stability: general statement
# Source text: The corresponding primary alkyl derivatives such as the S'-n-propyl compound are stable under similar conditions.
# The ethyl sulfinylmethyl product was unstable at room temperature.
# Bollworm larvae = test: Bollworm test on cotton plants; type: in vivo; conditions: Helicoverpa zea, Table XIV, 0.5 lbs/acre
# Procedure: Bollworms: Bollworm larvae used in the present study were progeny of adult moths collected from light traps stationed in cotton fields. The larvae were reared on the Vanderzant-Adkisson Special Wheat Germ Diet for Insects. This diet was fortified with Vanderzant's Insect Vitamin Fortification. The diet and the vitamin fortification were obtaind from Nutritional Biochemicals Corporation, Cleveland, Ohio. The larvae were reared and tested in continuous illumination at 78±5° […]. Only third and fourth instar larvae which weighed between 25 and 60 mg. were used in the tests.
# Insecticidal sprays were made by the conventional low-volume (CLV) method. CLV sprays were applied through a 6X hollow-cone nozzle calibrated to deliver the equivalent of 3.5 ga./acre of the water/emulsion spray mixture. Sprays were applied to individual cotton plants grown in one gallon buckets. After treatment the plants were allowed to dry for 1 to 2 hours in the open air before being transported to a holding room. The larvae were placed on the treated leaf surfaces and held singly in small snap-on type plastic screen cages of about 11/2 inches in diameter. Untreated control groups were maintained for each test replicate so that treatment mortalities could be adjusted according to Abbott's formula. Treatments were replicated 3 times. Each replicate contained 20 larvae. […]
# Corn earworm = test: Field control of corn earworm (Example 27); type: in vivo; conditions: Table XV; 1 lbs/acre; untreated check 45
# Source text: Spring Gold sween corn was planted on March 21. Each treatment was made on a 48 ft. row and was replicated three times. Ratings represent the total counts from all three replicates. Except for insecticide treatment the plots were managed according to recommended farming practice for the area. Application of the experimental compositions at the 1 lb. active ingredient per acre were made and readings were made to determine the number of infested corn ears.
# [8] = read-out: Mortality, % - Mexican Bean Beetles
# [9] = 24 h, read-out: Per Cent Mortality (24 hours After Application)
# [10] = 48 h, read-out: Per Cent Mortality (48 hours After Application)
# [11] = 72 h, read-out: Per Cent Mortality (72 hours After Application)
# Sequence of bovine cholinesterase (P23795-2 with tags, fused parts or gaps limits assumed): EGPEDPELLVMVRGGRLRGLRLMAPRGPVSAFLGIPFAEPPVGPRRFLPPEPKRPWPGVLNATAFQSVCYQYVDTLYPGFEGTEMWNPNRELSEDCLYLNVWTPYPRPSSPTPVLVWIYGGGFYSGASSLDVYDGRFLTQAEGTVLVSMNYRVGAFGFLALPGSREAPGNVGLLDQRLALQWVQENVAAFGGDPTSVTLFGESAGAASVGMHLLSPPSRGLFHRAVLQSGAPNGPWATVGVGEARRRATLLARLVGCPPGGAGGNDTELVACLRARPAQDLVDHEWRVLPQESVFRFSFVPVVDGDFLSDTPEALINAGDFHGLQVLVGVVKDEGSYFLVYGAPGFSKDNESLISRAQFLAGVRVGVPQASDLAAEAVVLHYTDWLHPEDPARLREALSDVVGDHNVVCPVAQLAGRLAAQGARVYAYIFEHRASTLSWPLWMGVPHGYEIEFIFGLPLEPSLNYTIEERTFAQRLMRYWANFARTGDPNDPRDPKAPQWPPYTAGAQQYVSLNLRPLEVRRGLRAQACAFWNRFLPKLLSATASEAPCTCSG
compound,measurement,setting,value
"CCOP(=S)(OCC)SCCSCC [Disyston, reference compound]",IC50,bovine cholinesterase,380000 nM
same,"Nematodes Rate, Control after 1-4 weeks (at 25#/acre)",Root-knot nematode,0
same,LD50 at 336 h,in vivo,25 mg/kg
same,mortality at 2.5 ppm,Corn rootworm larvae,0%
same,mortality at 20 ppm,House fly,100%
same,"Southern Army Worm Mortality, %",Southern army worm [1],0%
same,mortality at 50 ppm,Mexican bean beetle,30%
"CCCSP(=O)(OCC)SCCSc1ccccc1 (stereo not drawn) [Example 4, O-Ethyl S-1-Propyl S-2-Phenylthioethyl Dithiophosphate]",mortality at 250 ppm,Southern army worm [2],100%
same,mortality at 250 ppm,Bean aphids [3],95%
same,minimal effective dose,Lone Star Ticks; oral,> 100 mg/kg
same,minimal effective dose,"Lone Star Ticks; sc, subcutaneous",> 100 mg/kg
same,mortality at 250 ppm,Bean aphids [4],20%
same,minimal effective dose,Secondary Screw Worms; oral,> 100 mg/kg
same,minimal effective dose,"Secondary Screw Worms; sc, subcutaneous",> 100 mg/kg
same,minimal effective dose,Black Blow Flies; oral,> 100 mg/kg
same,minimal effective dose,"Black Blow Flies; sc, subcutaneous",> 100 mg/kg
same,mortality at 250 ppm,Spider mites [5],100%
same,mortality at 250 ppm,House fly,95%
same,mortality at 250 ppm,Spider mites [6],40%
same,mortality at 250 ppm,Mexican bean beetle; [8],100%
"CCCSP(=O)(OCC)SCC[S+](C)[O-] (stereo not drawn) [Example 6, O-Ethyl S-1-Propyl S'-2-Methylsulfinylethyl Dithiophosphate]",mortality at 250 ppm,Southern army worm [2],100%
same,"Nematode Control,% at 25 lb/acre",Root-knot nematode,100%
same,LD50 at 336 h,in vivo,46 mg/kg
same,mortality at 250 ppm,Bean aphids [3],100%
same,minimal effective dose,Lone Star Ticks; oral,50 mg/kg
same,minimal effective dose,"Lone Star Ticks; sc, subcutaneous",50 mg/kg
same,mortality at 250 ppm,Bean aphids [4],100%
same,minimal effective dose,Secondary Screw Worms; oral,100 mg/kg
same,minimal effective dose,"Secondary Screw Worms; sc, subcutaneous",50 mg/kg
same,minimal effective dose,Black Blow Flies; oral,50 mg/kg
same,minimal effective dose,"Black Blow Flies; sc, subcutaneous",50 mg/kg
same,mortality at 250 ppm,Spider mites [5],100%
same,mortality at 250 ppm,Spider mites [6],100%
same,mortality at 250 ppm,"Mexican bean beetle; read-out: Mortality, % - Mexican Bean Beetle",100%
"CCOP(=O)(SCCSCC)SC(C)(C)C (stereo not drawn) [Example 10, O-Ethyl S-t-Butyl S'-2-Ethylthioethyl Dithiophosphate]",mortality at 50 ppm,Southern army worm [2],0%
same,mortality at 100 ppm,Southern army worm [2],0%
same,thermal stability,[7],thermally highly unstable
same,thermal stability on gas chromatographic analysis,[7]; injector temperature of 200° C,decomposed to yield isobutylene
"CCCSP(=O)(OCC)SCSCC (stereo not drawn) [Example 11, O-Ethyl S-1-Propyl S'-Ethylthiomethyl Dithiophosphate]",IC50,bovine cholinesterase,2700 nM
same,"Nematodes Rate, Control after 1-4 weeks (at 25#/acre)",Root-knot nematode,100
same,mortality at 2.5 ppm,Corn rootworm larvae,100%
same,mortality at 20 ppm,House fly,100%
same,stability (nmr),[7]; 60° C,slowly decomposing
same,"Southern Army Worm Mortality, %",Southern army worm [1],100%
same,mortality at 100 ppm,Mexican bean beetle,100%
"CCOP(=O)(SCSCC)SCC(C)C (stereo not drawn) [Example 12, O-Ethyl S-Isobutyl S'Ethylthiomethyl Dithiophosphate]",thermal stability,[7],thermal instability
"CCCSP(=O)(OCC)SCCSCC (stereo not drawn) [Example 30, O-Ethyl 1-Propyl S'-2-Ethylthioethyl Dithiophosphate]",mortality at 50 ppm,Southern army worm [2],80%
same,mortality at 100 ppm,Southern army worm [2],100%
same,mortality at 250 ppm,Southern army worm [2],100%
same,IC50,"bovine cholinesterase; read-out: Cholinesterase Inhibiting conc. LD50, Mole/Liter, 30 min",1100 nM
same,"Nematodes Rate, Control after 1-4 weeks (at 25#/acre)",Root-knot nematode,100
same,LD50 at 336 h,in vivo,318 mg/kg
same,mortality at 250 ppm,Bean aphids [3],100%
same,mortality at 250 ppm,Bean aphids [4],90%
same,mortality at 2.5 ppm,Corn rootworm larvae,20%
same,mortality at 250 ppm,Spider mites [5],100%
same,mortality at 20 ppm,House fly,100%
same,mortality at 250 ppm,House fly,100%
same,"Southern Army Worm Mortality, %",Southern army worm [1],100%
same,mortality at 250 ppm,Spider mites [6],100%
same,mortality at 50 ppm,Mexican bean beetle,100%
same,mortality at 250 ppm,Mexican bean beetle; [8],100%
"CCCSP(=O)(OCC)SCSc1ccc(Cl)cc1 (stereo not drawn) [Example 31, O-Ethyl S-1-Propyl S'-4-Chlorophenyllthiomethyl Dithiophosphate]",IC50,bovine cholinesterase,4.1 nM
same,"Nematodes Rate, Control after 1-4 weeks (at 25#/acre)",Root-knot nematode,100
same,mortality at 2.5 ppm,Corn rootworm larvae,0%
same,mortality at 20 ppm,House fly,100%
same,"Southern Army Worm Mortality, %",Southern army worm [1],100%
same,mortality at 100 ppm,Mexican bean beetle,100%
"CCOP(=S)(OCC)SCSCC [Thimet, reference compound]",IC50,bovine cholinesterase,31000 nM
same,"Nematodes Rate, Control after 1-4 weeks (at 25#/acre)",Root-knot nematode,0
same,mortality at 2.5 ppm,Corn rootworm larvae,100%
same,mortality at 20 ppm,House fly,90%
same,"Southern Army Worm Mortality, %",Southern army worm [1],0%
same,mortality at 100 ppm,Mexican bean beetle,90%
CCCSP(=O)(OCC)SCCSC (stereo not drawn) [drawing 52],mortality at 560.425 g/ha,Bollworm larvae; [9],72%
same,mortality at 560.425 g/ha,Bollworm larvae; [10],80%
same,mortality at 560.425 g/ha,Bollworm larvae; [11],89%
CCCSP(=O)(OCC)SCC(C)SC (stereo not drawn) [drawing 53],mortality at 560.425 g/ha,Bollworm larvae; [9],84%
same,mortality at 560.425 g/ha,Bollworm larvae; [10],96%
same,mortality at 560.425 g/ha,Bollworm larvae; [11],96%
CCCSC(C)CSP(=O)(OCC)SCCC (stereo not drawn) [drawing 54],mortality at 560.425 g/ha,Bollworm larvae; [9],87%
same,mortality at 560.425 g/ha,Bollworm larvae; [10],94%
same,mortality at 560.425 g/ha,Bollworm larvae; [11],99%
CCCSP(=O)(OCC)SCCSC (stereo not drawn) [drawing 55],Number of Infested Corn Ears (150 Ears Sampled),Corn earworm,2
CCCSP(=O)(OCC)SCC[S+](C)[O-] (stereo not drawn) [drawing 56],Number of Infested Corn Ears (150 Ears Sampled),Corn earworm,0
CCCSP(=O)(OCC)SC[S+]([O-])CC (stereo not drawn) [ethyl sulfinylmethyl product],stability (nmr),[7]; room temperature,unstable
"CCOP(=O)(SCC(C)C)SC[S+]([O-])CC (stereo not drawn) [ethylsulfinylmethyl ester, O-ethyl S-isobutyl S'-ethylsulfinylmethyl dithiophosphate]",thermal stability,[7],thermal instability
